This note sets out measurements from ChEMBL document CHEMBL1201862, “PubChem BioAssay data set” (2004).

Among the test systems are LXFL 529; DMS-273; DMS-114; HOP-18; XF498; SNB-78; RXF 631; M19-MEL; KM-20L2.
Common to all, as to experiment: NCI anticancer screen, dose series, 48 h

Each structure is given as a SMILES string.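 Five concentrations, 48 hours, 96-well plates. The concentration for 50% growth inhibition is given as GI50.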 Calls of active or inactive are those of the source. Cut-off read from the data, not from the text of the source: active = GI50 up to about 1.1 µM and inactive = higher. Where a SMILES comes first, the peptide text is derived from it. [ ]: non-standard residue; d: D form. The star is where a group is joined. NMeF = CN[C@@H](Cc1ccccc1)C(=O)O; NMeV = CN[C@H](C(=O)O)C(C)C; Boc = CC(C)(C)OC(=O)*; OBn = c1ccc(CO*)cc1

`CC(C)[C@@H](C(=O)N1CCC[C@H]1C(=O)OCc1ccccc1)N(C)C(=O)[C@H](C(C)C)N(C)C(=O)[C@H](Cc1ccccc1)N(C)C(=O)[C@H](NC(=O)OC(C)(C)C)C(C)C` (Boc-[dV][NMeF][NMeV][NMeV]P-OBn): the GI50 with LXFL 529 was 22.2 µM (inactive); in the assay with DMS-273, 24.3 µM (inactive); in the assay with DMS-114 it was 19.6 µM (inactive); in the assay with HOP-18 it was > 100 µM (inactive).

Turning to `O=C(/C=C/c1ccco1)N1CCN(Cc2ccccc2)CC1`, the GI50 with LXFL 529, in the assay on DMS-273, in the assay with XF498, in the assay on SNB-78, in the assay with DMS-114 and in the assay on RXF 631 was > 100 µM (inactive) each time. The GI50 with M19-MEL, in the assay on KM-20L2 and in the assay with HOP-18 was > 100 µM (inactive) throughout.

For the compound `O=C(NO)c1ccc(O)c(O)c1`, the GI50 is > 100 µM (inactive) in the assay on LXFL 529; 27.8 µM (inactive) in the assay with DMS-273; > 100 µM (inactive) in the assay with XF498; > 100 µM (inactive) in the assay on SNB-78; 55.1 µM (inactive) in the assay with DMS-114; > 100 µM (inactive) in the assay on RXF 631. The GI50 in the assay with M19-MEL was > 100 µM (inactive); with KM-20L2, > 100 µM (inactive); with HOP-18, 72.3 µM (inactive).

On to `CN(C)C(=S)NC(=S)Nc1ccc2ccccc2c1`, for which the GI50 was 2.07 µM (inactive) with LXFL 529; 1.67 µM (inactive) in the assay on DMS-273; 16.1 µM (inactive) with XF498; 23.7 µM (inactive) with SNB-78; 10 µM (inactive) in the assay with KM-20L2.

As to `CN(C)CCN(C)CCC(=O)/C=C/c1ccccc1`, the GI50 in the assay on LXFL 529 was 17.7 µM (inactive); in the assay with DMS-273, 17.4 µM (inactive); in the assay on XF498 it was 22.2 µM (inactive); in the assay on SNB-78 it was 31 µM (inactive); in the assay on DMS-114, 30.2 µM (inactive); in the assay on M19-MEL, 20.2 µM (inactive). The values for the GI50 with KM-20L2 and in the assay on HOP-18 were 56.2 µM (inactive) and > 100 µM (inactive), respectively.

As for `CCOC(=O)C1COc2cc(-c3cc(=O)c4ccccc4o3)ccc2O1` (stereo not given), the GI50 in the assay on LXFL 529 was 65.2 µM (inactive); in the assay with DMS-273, > 100 µM (inactive); in the assay on XF498, 30.6 µM (inactive); in the assay with SNB-78 it was 51.1 µM (inactive); in the assay with DMS-114, 42.6 µM (inactive); in the assay on M19-MEL it was 29.7 µM (inactive). In addition, in the assay on KM-20L2, the GI50 is > 100 µM (inactive).

Consider `CC(=O)OC(C)(C)[C@@H]1CC[C@]2(C)/C=C/[C@H](C)C[C@@H](O)C3=C(C)C[C@@H](O3)C12` (stereo not given in full), for which the GI50 with LXFL 529, in the assay on DMS-273, in the assay with SNB-78, with DMS-114, with RXF 631 and with M19-MEL was > 100 µM (inactive) each time. Besides, the GI50 with KM-20L2 and in the assay on HOP-18 was > 100 µM (inactive) throughout.

For the compound `Cc1cc(N(CCC#N)CCC#N)ccc1CC1N=C(c2ccccc2)OC1=O` (stereo not given), the GI50 in the assay with LXFL 529, with DMS-273, in the assay on XF498, in the assay on DMS-114, in the assay on RXF 631 and with M19-MEL was > 100 µM (inactive) each time. The GI50 with KM-20L2 is > 100 µM (inactive).

With `CCCCCC(=O)OC[n+]1ccc2c(C)c3[nH]c4ccccc4c3c(C)c2c1`, the GI50 in the assay with LXFL 529 is 1.02 µM (active); in the assay with DMS-273, 0.141 µM (active); with SNB-78 it was 0.995 µM (active); in the assay on DMS-114, 1.02 µM (active); in the assay on RXF 631 it was 0.408 µM (active); with M19-MEL it was 1.02 µM (active). For the same compound, the GI50 in the assay with KM-20L2 was 0.612 µM (active).

Take `OC12c3ccccc3C3CCC4(OCCO4)C3C1c1ccccc12` (stereo not given): the GI50 is > 100 µM (inactive) with LXFL 529; > 100 µM (inactive) in the assay on DMS-273; > 100 µM (inactive) in the assay on SNB-78; 53.6 µM (inactive) in the assay on DMS-114; > 100 µM (inactive) in the assay on M19-MEL; > 100 µM (inactive) in the assay on KM-20L2. Besides, the GI50 with HOP-18 was > 100 µM (inactive).

Turning to `O=C(O)C1=C(C(=O)O)Oc2ccccc2O1`, the GI50 with LXFL 529, with DMS-273, in the assay with XF498, in the assay on SNB-78, with DMS-114 and in the assay on M19-MEL was > 100 µM (inactive) each time. Moreover, the GI50 in the assay on KM-20L2 and with HOP-18 was > 100 µM (inactive) in each case.

Consider `CC(C)(Oc1ccc(C(=O)c2ccc(Cl)cc2)cc1Cl)C(=O)Nc1c(Cl)cccc1Cl`, for which the GI50 in the assay with LXFL 529 is > 100 µM (inactive); in the assay on DMS-273, > 100 µM (inactive); with XF498, > 100 µM (inactive); with SNB-78, > 100 µM (inactive); in the assay on DMS-114 it was 8.75 µM (inactive); with M19-MEL, > 100 µM (inactive). Also, the GI50 with KM-20L2 and with HOP-18 was > 100 µM (inactive) each time.

In the case of `CN(C)C(=O)Oc1c(-c2ccccc2)c(=O)n2c3ccccc3n3c(=O)n(C)c(=O)c1c23`, the GI50 with LXFL 529, in the assay on DMS-273, in the assay with XF498, with SNB-78, in the assay with DMS-114 and in the assay with RXF 631 was > 100 µM (inactive) each time. Further, the GI50 in the assay on M19-MEL and in the assay on HOP-18 was > 100 µM (inactive) in each case.

Take `CN(C)c1ccc(/C=C/c2ccc(/C=C/c3ccc(N(C)C)cc3)cc2)cc1`: the GI50 was 75.9 µM (inactive) with LXFL 529; > 100 µM (inactive) with DMS-273; > 100 µM (inactive) in the assay on SNB-78; > 100 µM (inactive) in the assay with RXF 631; > 100 µM (inactive) with M19-MEL; > 100 µM (inactive) in the assay with KM-20L2. Also, the GI50 in the assay with HOP-18 was > 100 µM (inactive).

For `Cc1cc(N(CCC#N)CCC#N)ccc1/C=C(\NC(=O)/C=C/c1ccccc1)C(=O)Nc1ccc(Cl)cc1`, the GI50 was 0.0991 µM (active) with LXFL 529; 0.982 µM (active) with DMS-273; > 100 µM (inactive) in the assay with XF498; > 100 µM (inactive) in the assay with SNB-78; 1.62 µM (inactive) with DMS-114; > 100 µM (inactive) in the assay on RXF 631. The GI50 in the assay on M19-MEL was 0.944 µM (active); with HOP-18, > 100 µM (inactive).

For `O=C1CCCCCCCCCCC(=O)N2CCOCCOCCN1Cc1cccc(n1)C2`, the GI50 in the assay on LXFL 529, in the assay on DMS-273, in the assay with SNB-78, in the assay on DMS-114, in the assay on RXF 631 and with M19-MEL was > 100 µM (inactive) in each case. The GI50 in the assay with KM-20L2 is > 100 µM (inactive).

In the case of `C/C(=N\NC(=O)CC(=O)Nc1ccc(C)cc1)c1cc2ccccc2oc1=O`, the GI50 in the assay with DMS-273 was > 100 µM (inactive); in the assay on XF498, 1.67 µM (inactive); in the assay on DMS-114, > 100 µM (inactive); with M19-MEL, > 100 µM (inactive); in the assay with KM-20L2 it was > 100 µM (inactive); with HOP-18 it was 68.2 µM (inactive).

Take `O=c1sc(-c2nc3ccccc3[nH]2)c(/N=C/c2ccccc2)n1-c1ccccc1`: the GI50 is 30.3 µM (inactive) with LXFL 529; 28.4 µM (inactive) in the assay on DMS-273; 31.2 µM (inactive) with XF498; 35.5 µM (inactive) in the assay with SNB-78; 94.2 µM (inactive) in the assay on M19-MEL; 67 µM (inactive) in the assay on HOP-18.

Turning to `CC(=O)c1ccc(N2C(=O)C3c4[nH]c5ccccc5c4C4CCC(C(C)(C)C)CC4C3C2=O)cc1` (stereo not given), the GI50 in the assay with LXFL 529 was 29.3 µM (inactive); in the assay with DMS-273, 17.7 µM (inactive); in the assay on SNB-78, 19.6 µM (inactive); in the assay on DMS-114, 23.1 µM (inactive); in the assay on M19-MEL it was 19.2 µM (inactive); in the assay with KM-20L2 it was 18.7 µM (inactive). For the same compound, the GI50 in the assay with HOP-18 was 91.6 µM (inactive).

For the compound `CC1C(=O)O[C@H]2C1CC[C@@]1(C)[C@H](O)CC[C@@]13C[C@]2(O)OO3` (stereo not given in full), the GI50 in the assay with LXFL 529, in the assay with DMS-273, with DMS-114, in the assay on M19-MEL, with KM-20L2 and in the assay on HOP-18 was > 100 µM (inactive) throughout.

For `CN(CCS(=O)(=O)N1C(=O)C2CCCN2C(=O)[C@@H]1Cc1ccccc1)C(=O)OCc1ccccc1` (stereo not given in full), the GI50 is 45.4 µM (inactive) in the assay with LXFL 529; 92.7 µM (inactive) with SNB-78; 59.6 µM (inactive) with DMS-114; 56.2 µM (inactive) in the assay with RXF 631; 62.1 µM (inactive) in the assay on M19-MEL; 61.8 µM (inactive) in the assay on KM-20L2. Further, the GI50 in the assay on HOP-18 is > 100 µM (inactive).

Take `C=CCC(N(C)C(=O)[C@H](Cc1ccccc1)NC(=O)OCc1ccccc1)P(=O)(Oc1ccccc1)Oc1ccccc1` (stereo not given in full): the GI50 in the assay on LXFL 529 was 6.79 µM (inactive); with DMS-273, > 100 µM (inactive); with XF498, > 100 µM (inactive); in the assay with SNB-78, > 100 µM (inactive); in the assay on DMS-114, 5.62 µM (inactive); with M19-MEL, > 100 µM (inactive). Also, the GI50 in the assay with KM-20L2 was > 100 µM (inactive).

As to `Cc1nc(-n2nc(-c3ccccc3)cc2-c2ccccc2)sc1C(=O)/C=C/c1cccc([N+](=O)[O-])c1`, the GI50 was 26.5 µM (inactive) with DMS-273; 52.7 µM (inactive) in the assay on SNB-78; 11.6 µM (inactive) in the assay on DMS-114; 16.4 µM (inactive) in the assay on M19-MEL; 17.8 µM (inactive) with KM-20L2; 12.1 µM (inactive) with HOP-18.

As for `CN(C(=O)c1cccs1)C(=S)N1CCN(c2ccccn2)CC1`, the GI50 with LXFL 529, in the assay with DMS-273, in the assay with XF498, in the assay with SNB-78, in the assay with DMS-114 and in the assay on M19-MEL was > 100 µM (inactive) throughout. The GI50 with KM-20L2 and with HOP-18 was > 100 µM (inactive) each time.
